The text below walks through data of patent publication US10696678B2, “Kinase inhibitor, and preparing method and pharmaceutical use thereof” (GAN & LEE PHARMACEUTICALS, priority 2015, dated 2020).

Where two headings read alike, the source gives them in different places.

For series [1], the system named is human breast cancer cell line MDB-MA-231. Kind of series: Proliferation inhibition assay on human breast cancer cell line MDA-MB-231 (DAPI staining, In Cell Analyzer). Particulars: MDA-MB-231, read-out: IC50 for inhibition of proliferation of human breast cancer cell line MDB-MA-231, 72 h incubation. Type of series: cell-based. Here is the method: Experimental Preparation:
1. MDA-MB-231 cells were seeded at 4000 cells/100 ul/well to a 96-well plate with black transparent bottom, and cultured overnight at 37° C.;
3. Fixation: the cell plate was taken, medium was removed, and 50 μl of 4% paraformaldehyde was added to each well and fixed 10 min;
4.50 μl 0.1 M glycine was added to neutralize for 10 min;
6. Permeabilization: 50 ul of 0.2% TritonX-100 was added to each well and permeabilized at room temperature for 10 min;
8.5 mg/mL DAPI stock solution was diluted at 1:5000 (final concentration 1 μg/ml) and the cells were stained at room temperature for 20 min.
10. The plate was scanned and analyzed on In cell analyser.

The target in series [2] is CDK4/D3 (Homo sapiens (Human), UniProt P11802). The series is described as follows: CDKs inhibition assay (ADP-Glo Kinase Assay), CDK4. Conditions: for selectivity for CDK4/6 (over CDK1) compared with the control compound LY2835219: in words; for Ratio IC50 (CDK4)/IC50 (CDK1): smaller value = better selectivity for CDK4.
Method: (2) Preparation of Test Compound:
(§4) a. Test compounds at a certain concentration were taken respectively, and diluted with kinase reaction buffer I to compound solutions with a final concentration of 50 μM;
(§5) 4. Preparation of reaction substrate and ATP mixed solution:
a. Preparation of ATP solution:
(§6) 200 μl of 0.1 mM ATP solution: 2 μl of 10 mM ATP was added into 198 μl kinase reaction buffer I;
(§7) 300 μl of 50 μl M ATP solution: 150 μl kinase reaction buffer I was added into 150 μl of above-mentioned 0.1 mM ATP solution;
(§8) b. Preparation of 300 μl reaction substrate solution:
(§9) 150 μl of 1 μg/μl reaction substrate stock solution was added into 150 μl kinase reaction buffer I and uniformly mixed;
(§10) c. Above-mentioned a/b solutions were mixed to obtain mixed solutions respectively.
(§11) 2 μl compound solution at each concentration was added into a 384-well plate respectively, and centrifuged for 3 min;
(§12) 4 μl kinase solution was added into each well, centrifuged at 5000 rpm for 10 min at 18° C., and shaked well for 10 min on a shaker;
(§13) 4 μl substrate and ATP mixed solution were added into each well, centrifuged at 5000 rpm for 10 min at 18° C., and shaked well for 90 min on a shaker at 37° C.;
(§14) The 384 well plate was removed and allow to achieve room temperature;
(§15) 10 μl ADP-Glo reagent was added into each well, centrifuged at 5000 rpm for 10 min at 18° C., and shaked well for 40 min on a shaker at 25° C. to terminate the reaction;
(§16) 20 μl kinase assay reagent was added into each well, centrifuged at 5000 rpm for 10 min at 18° C., and shaked well for 30 min on a shaker at 25° C.;
(§17) Fluorescence values were read by M1000pro microplate reader.
(§18) The inhibition rate of each compound at each concentration point was calculated according to the following equation, and IC50 value was calculated by curve fitting using GraphPad Prism 5 software.
The target in series [3] is CDK6/D3 (Homo sapiens (Human), UniProt Q00534). Kind of series: CDKs inhibition assay (ADP-Glo Kinase Assay), CDK6. Conditions: for Ratio IC50 (CDK6)/IC50 (CDK1): smaller value = better selectivity for CDK6.
Method: (2) Preparation of Test Compound:
as §4, §5
a. Preparation of ATP solution:
as §6, §7, §8, §9, §10, §11, §12, §13, §14, §15, §16, §17, §18
Series [4] addresses CDK1/A2 (Homo sapiens (Human), UniProt P06493). Kind of series: CDKs inhibition assay (ADP-Glo Kinase Assay), CDK1. Conditions: read-out: IC50 (nM) CDK1/A2.
Method: (2) Preparation of Test Compound:
as §4, §5
a. Preparation of ATP solution:
as §6, §7, §8, §9, §10, §11, §12, §13, §14, §15, §16, §17, §18
A short description of series [5]: Pharmacokinetic study in rats (intragastric). Format: in vivo, SD rats. Particulars: 5 mg/kg. How it is done: (§1) 2.3 Preparation of Test Compounds
(§2) 2.4 Test Drug Administration
(§3) 3. Experimental Operation
Whole blood was anticoagulated with EDTA-K2, centrifuged to remove the supernatant, and cryopreserved at −20° C. until being analyzed.

A short description of series [6]: Pharmacokinetic study in mice (intragastric and intravenous). Type of series: in vivo, ICR mice. Conditions: for AUC: read-out: Area under the curve AUC; for MRT: read-out: Retention time MRT. Here is the method: as §1
An appropriate amount of sample was weighed, then 0.1% hydroxyethyl cellulose/0.5% Tween 80 was added to final volume to obtain a solution of 0.5 mg/ml for intragastrical administration.
as §2
Male ICR mice, 3 for each test compound, were intragastrically administered test drugs at a dose of 5 mg/kg and a drug volume of 10 ml/kg after an overnight fast.
Male ICR mice, 3 for each test compound, were administered by intravenous injection test drugs at a dose of 2 mg/kg and a drug volume of 10 ml/kg after an overnight fast.
as §3
The carotid artery of the animal was catheterized and blood sample was removed prior to dosing and at 0.25, 0.5, 1, 2, 4, 8, 12 and 24 hours after dosing for intragastrical administration group. Whole blood was anticoagulated with EDTA-K2, centrifuged to remove the supernatant, and cryopreserved at −20° C. until being analyzed. The carotid artery of the animal was catheterized and blood sample was removed prior to dosing and at 0.083, 0.25, 0.5, 1, 2, 4, 8, 12 and 24 hours after dosing for i.v. administration group. Plasma sample treatment was the same as intragastrical administration group.

The mark [7] stands for this setting: male, ICR, mouse, plasma, iv, i.v. (2 mg/kg).
Where [8] appears, read: male, ICR, mouse, plasma, po, i.g. (5 mg/kg).

Take `CC1CN(c2ccc(Nc3ncc(F)c(-c4cc(F)c5nc6n(c5c4)C(C)(C)CC6)n3)nc2)CC(C)N1` (stereo not shown) [Example 74, N-(5-(3,5-Dimethylpiperazin-1-yl)pyridin-2-yl)-5-fluoro-4-(5-fluoro-1,1-dimethyl-2,3-dihydro-1H-benzo[d]pyrrolo[1,2-a]imidazol-7-yl)pyrimidin-2-amine]: the IC50 in series [1] is 174 nM. Also, in series [2], the IC50 worked out at 0.28 nM, the “selectivity for CDK4/6 (over CDK1) compared with the control compound LY2835219” value (shortened to “selectivity for CDK4/6 (over CDK1)”) is given as “better selectivity for CDK4/6 than the control compound” and the “Ratio IC50 (CDK4)/IC50 (CDK1)” value was 0.003. Further, in series [3], the IC50 turned out to be 0.6 nM and the “Ratio IC50 (CDK6)/IC50 (CDK1)” value was 0.006. Further, the IC50 in series [4] is 94.8 nM.

On to `Cc1nc(Nc2ncc(F)c(-c3cc(F)c4nc5n(c4c3)C(C)(C)CC5)n2)ccc1CC1CCNCC1` [Example 30, 5-Fluoro-4-(5-fluoro-1,1-dimethyl-2,3-dihydro-1H-benzo[d]pyrrolo[1,2-a]imidazol-7-yl)-N-(6-methyl-5-(piperidine-4-ylmethyl)pyridin-2-yl)pyrimidin-2-amine], for which the IC50 in series [1] turned out to be 300 nM; in series [2] it was 1.2 nM; in series [3], 12.2 nM; in series [4], 744 nM. In addition, the “selectivity for CDK4/6 (over CDK1)” value in series [2] is listed as “better selectivity for CDK4/6 than the control compound”. In series [2], the “Ratio IC50 (CDK4)/IC50 (CDK1)” value amounted to 0.002. In addition, in series [3], the “Ratio IC50 (CDK6)/IC50 (CDK1)” value was found to be 0.016.

Consider `CN1CCN(c2ccc(Nc3ncc(F)c(-c4cc(F)c5nc6n(c5c4)C(C)(C)CC6)n3)nc2)CC1` [Example 43, 5-Fluoro-4-(5-fluoro-1,1-dimethyl-2,3-dihydro-1H-benzo[d]pyrrolo[1,2-a]imidazol-7-yl)-N-(5-(4-methylpiperazin-1-yl)pyridin-2-yl)pyrimidin-2-amine], for which the IC50 in series [1] was 58 nM. Also, in series [2], the IC50 came to 13 nM, the “selectivity for CDK4/6 (over CDK1)” value was “better selectivity for CDK4/6 than the control compound” and the “Ratio IC50 (CDK4)/IC50 (CDK1)” value worked out at 0.018. Also, in series [3], the IC50 worked out at 0.3 nM and the “Ratio IC50 (CDK6)/IC50 (CDK1)” value is 0.0004. Also, the IC50 in series [4] was 732 nM.

Turning to `CCN1CCN(Cc2ccc(Nc3ncc(F)c(-c4cc(F)c5nc(C)n(C(C)C)c5c4)n3)nc2)CC1` [LY2835219], the “Area under the curve AUC” value in series [5] was found to be 3275 ± 731 ng·h/mL. In addition, the “Apparent volume of distribution Vz/F” value in series [6] (i.v. (2 mg/kg)) worked out at 7.21 ± 1.08 L/kg. For the same compound, in series [6] (setting [7]), the exposure (AUC) worked out at 674 ± 82.1 ng·h/mL and the mean residence time MRT turned out to be 1.64 ± 0.17 h. The bioavailability in series [6] (male, ICR, mouse, plasma, oral, i.g. (5 mg/kg) vs i.v. (2 mg/kg), read-out: Bioavailability F) was 45.1%. The Vd/F in series [6] (male, ICR, mouse, plasma, po, i.g. (5 mg/kg), read-out: Apparent volume of distribution Vz/F) was found to be 16.1 ± 0.963 L/kg. Also, in series [6] (setting [8]), the AUC was 756 ± 34 ng·h/mL and the MRT turned out to be 3.08 ± 0.02 h.

On to `CC1CCc2nc3c(F)cc(-c4ccnc(Nc5ccc(N6CCNCC6)cn5)n4)cc3n21` (stereo not shown) [Example 72, 4-(5-Fluoro-1-methyl-2,3-dihydro-1H-benzo[d]pyrrolo[1,2-a]imidazol-7-yl)-N-(5-(piperazin-1-yl)pyridin-2-yl)pyrimidin-2-amine], for which the IC50 in series [4] turned out to be 693 nM.

Consider `C[C@H]1CN(Cc2ccc(Nc3ncc(F)c(-c4cc(F)c5nc6n(c5c4)C(C)(C)CC6)n3)nc2)CCN1C` [Example 47, (S)—N-(5-((3,4-Dimethylpiperazin-1-yl)methyl)pyridin-2-yl)-5-fluoro-4-(5-fluoro-1,1-dimethyl-2,3-dihydro-1H-benzo[d]pyrrolo[1,2-a]imidazol-7-yl)pyrimidin-2-amine], for which, in series [2], the IC50 turned out to be 2.4 nM, the “selectivity for CDK4/6 (over CDK1)” value is given as “better selectivity for CDK4/6 than the control compound” and the “Ratio IC50 (CDK4)/IC50 (CDK1)” value turned out to be 0.003. In series [3], the IC50 worked out at 3 nM and the “Ratio IC50 (CDK6)/IC50 (CDK1)” value worked out at 0.004. The IC50 in series [4] amounted to 745 nM.

For `CC1(C)Cc2nc3c(F)cc(-c4nc(Nc5ccc(N6CCNCC6)cn5)ncc4F)cc3n2C1` [Example 55, 5-Fluoro-4-(5-fluoro-2,2-dimethyl-2,3-dihydro-1H-benzo[d]pyrrolo[1,2-a]imidazol-7-yl)-N-(5-(piperazin-1-yl)pyridin-2-yl)pyrimidin-2-amine], the IC50 in series [4] was 6240 nM.
